Data published in ChEMBL document CHEMBL4308825, “Positive and Negative Allosteric Modulators of N-Methyl-d-aspartate (NMDA) Receptors: Structure-Activity Relationships and Mechanisms of Action” (J Med Chem, 2018).
pEC50, pIC50: −log10 of the molar value. One block for each molecule: values may come before it.

How the values were obtained:
[1] = molecular target: T1, Glutamate receptor ionotropic, NMDA 2C (Homo sapiens, UniProt Q05586+Q14957); experiment: Negative allosteric modulation of GluN2C receptor (unknown origin) expressed in xenopus laevis oocytes assessed as reduction in glycine-induced channel current by two electrode voltage clamp method; type: cell-based
T1 sequence (Q14957 whole entry, one chain of several): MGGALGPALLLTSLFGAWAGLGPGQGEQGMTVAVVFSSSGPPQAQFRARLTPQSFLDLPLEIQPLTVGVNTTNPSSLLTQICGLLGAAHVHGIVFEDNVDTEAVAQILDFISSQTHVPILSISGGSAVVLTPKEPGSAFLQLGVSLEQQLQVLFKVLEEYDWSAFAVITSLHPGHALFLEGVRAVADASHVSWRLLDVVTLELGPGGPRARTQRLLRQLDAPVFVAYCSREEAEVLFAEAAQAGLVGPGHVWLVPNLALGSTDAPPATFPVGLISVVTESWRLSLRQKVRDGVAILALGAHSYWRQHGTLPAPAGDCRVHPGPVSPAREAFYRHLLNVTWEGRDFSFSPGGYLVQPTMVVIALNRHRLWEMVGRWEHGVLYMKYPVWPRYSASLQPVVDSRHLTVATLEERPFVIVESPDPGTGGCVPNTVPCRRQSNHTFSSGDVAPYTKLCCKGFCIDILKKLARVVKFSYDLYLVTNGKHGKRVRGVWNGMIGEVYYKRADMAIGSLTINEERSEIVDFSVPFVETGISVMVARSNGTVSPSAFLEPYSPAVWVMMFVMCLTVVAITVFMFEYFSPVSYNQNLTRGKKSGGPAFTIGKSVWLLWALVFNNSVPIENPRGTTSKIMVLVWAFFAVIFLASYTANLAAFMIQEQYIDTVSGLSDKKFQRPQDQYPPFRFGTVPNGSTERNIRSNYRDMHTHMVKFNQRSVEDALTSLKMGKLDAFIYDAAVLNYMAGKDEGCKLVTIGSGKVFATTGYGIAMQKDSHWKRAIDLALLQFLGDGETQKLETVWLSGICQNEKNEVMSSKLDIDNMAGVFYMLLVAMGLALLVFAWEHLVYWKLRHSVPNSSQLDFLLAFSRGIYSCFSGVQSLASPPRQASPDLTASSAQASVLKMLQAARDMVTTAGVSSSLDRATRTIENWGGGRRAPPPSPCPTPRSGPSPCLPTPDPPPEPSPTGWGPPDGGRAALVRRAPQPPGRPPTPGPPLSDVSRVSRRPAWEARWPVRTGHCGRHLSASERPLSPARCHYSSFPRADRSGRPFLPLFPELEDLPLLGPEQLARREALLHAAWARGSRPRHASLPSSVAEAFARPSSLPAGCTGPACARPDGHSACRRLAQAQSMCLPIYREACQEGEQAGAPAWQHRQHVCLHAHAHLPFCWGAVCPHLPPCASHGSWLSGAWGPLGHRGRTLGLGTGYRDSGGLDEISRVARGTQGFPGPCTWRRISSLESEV

[2] = molecular target: T2, Glutamate receptor ionotropic, NMDA 2D (Homo sapiens, UniProt O15399+Q05586); experiment: Negative allosteric modulation of GluN2D receptor (unknown origin) expressed in xenopus laevis oocytes assessed as reduction in glycine-induced channel current by two electrode voltage clamp method; type: cell-based
T2 sequence (O15399 whole entry, one chain of several): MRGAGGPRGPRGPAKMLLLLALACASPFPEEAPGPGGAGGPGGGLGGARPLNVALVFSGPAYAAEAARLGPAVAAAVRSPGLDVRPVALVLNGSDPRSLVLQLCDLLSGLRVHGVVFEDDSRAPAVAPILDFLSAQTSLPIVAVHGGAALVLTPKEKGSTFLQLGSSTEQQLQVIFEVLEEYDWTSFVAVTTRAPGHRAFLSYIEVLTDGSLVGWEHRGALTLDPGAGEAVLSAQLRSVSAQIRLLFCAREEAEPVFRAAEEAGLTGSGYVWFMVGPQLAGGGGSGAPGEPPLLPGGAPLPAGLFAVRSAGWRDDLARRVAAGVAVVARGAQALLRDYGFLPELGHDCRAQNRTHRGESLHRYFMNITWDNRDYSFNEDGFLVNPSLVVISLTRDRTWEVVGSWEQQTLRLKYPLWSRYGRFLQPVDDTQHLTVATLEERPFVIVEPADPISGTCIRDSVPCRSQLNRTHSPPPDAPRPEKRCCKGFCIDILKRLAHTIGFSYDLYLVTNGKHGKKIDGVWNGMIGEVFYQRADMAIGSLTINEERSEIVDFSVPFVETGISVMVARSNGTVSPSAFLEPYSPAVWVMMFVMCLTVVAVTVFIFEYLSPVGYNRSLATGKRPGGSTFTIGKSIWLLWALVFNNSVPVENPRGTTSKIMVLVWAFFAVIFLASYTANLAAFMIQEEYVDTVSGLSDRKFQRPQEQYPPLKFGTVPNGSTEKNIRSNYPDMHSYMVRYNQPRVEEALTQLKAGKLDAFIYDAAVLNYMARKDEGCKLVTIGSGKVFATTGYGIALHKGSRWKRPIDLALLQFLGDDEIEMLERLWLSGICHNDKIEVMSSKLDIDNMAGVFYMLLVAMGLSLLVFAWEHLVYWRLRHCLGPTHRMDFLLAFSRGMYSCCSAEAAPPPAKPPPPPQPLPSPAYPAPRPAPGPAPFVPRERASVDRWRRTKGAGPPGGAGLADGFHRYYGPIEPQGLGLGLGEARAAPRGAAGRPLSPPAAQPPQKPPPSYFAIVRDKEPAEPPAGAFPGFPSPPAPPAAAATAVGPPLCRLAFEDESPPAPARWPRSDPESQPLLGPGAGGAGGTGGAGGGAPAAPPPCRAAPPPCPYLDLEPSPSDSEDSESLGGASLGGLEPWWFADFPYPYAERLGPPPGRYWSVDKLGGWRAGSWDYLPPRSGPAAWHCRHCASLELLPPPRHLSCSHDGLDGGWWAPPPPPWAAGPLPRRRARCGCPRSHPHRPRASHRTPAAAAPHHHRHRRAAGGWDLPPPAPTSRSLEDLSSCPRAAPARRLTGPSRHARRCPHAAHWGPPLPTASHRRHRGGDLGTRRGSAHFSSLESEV

Homo sapiens [3] = organism: Homo sapiens; experiment: Selectivity ratio of IC50 for GluN2B receptor (unknown origin) expressed in xenopus laevis oocytes to IC50 for GluN2C receptor (unknown origin) expressed in xenopus laevis oocytes; type: cell-based
Homo sapiens [4] = organism: Homo sapiens; experiment: Selectivity ratio of IC50 for GluN2A receptor (unknown origin) expressed in xenopus laevis oocytes to IC50 for GluN2C receptor (unknown origin) expressed in xenopus laevis oocytes; type: cell-based
Homo sapiens [5] = organism: Homo sapiens; experiment: Selectivity ratio of IC50 for GluN2B receptor (unknown origin) expressed in xenopus laevis oocytes to IC50 for GluN2D receptor (unknown origin) expressed in xenopus laevis oocytes; type: cell-based
Homo sapiens [6] = organism: Homo sapiens; experiment: Selectivity ratio of IC50 for GluN2A receptor (unknown origin) expressed in xenopus laevis oocytes to IC50 for GluN2D receptor (unknown origin) expressed in xenopus laevis oocytes; type: cell-based
[7] = molecular target: T2, Glutamate receptor ionotropic, NMDA 2D; experiment: Positive allosteric modulation of GluN2D receptor (unknown origin) expressed in xenopus laevis oocytes assessed as increase in glycine-induced channel current by two electrode voltage clamp method; type: cell-based
[8] = molecular target: T3, Glutamate receptor ionotropic, NMDA 2A (Homo sapiens, UniProt Q05586+Q12879); experiment: Positive allosteric modulation of GluN2A receptor (unknown origin) expressed in xenopus laevis oocytes assessed as increase in glycine-induced channel current by two electrode voltage clamp method; type: cell-based
[9] = molecular target: T4, Glutamate receptor ionotropic, NMDA 2B (Homo sapiens, UniProt Q05586+Q13224); experiment: Positive allosteric modulation of GluN2B receptor (unknown origin) expressed in xenopus laevis oocytes assessed as increase in glycine-induced channel current by two electrode voltage clamp method; type: cell-based
T4 sequence (Q13224 whole entry, one chain of several): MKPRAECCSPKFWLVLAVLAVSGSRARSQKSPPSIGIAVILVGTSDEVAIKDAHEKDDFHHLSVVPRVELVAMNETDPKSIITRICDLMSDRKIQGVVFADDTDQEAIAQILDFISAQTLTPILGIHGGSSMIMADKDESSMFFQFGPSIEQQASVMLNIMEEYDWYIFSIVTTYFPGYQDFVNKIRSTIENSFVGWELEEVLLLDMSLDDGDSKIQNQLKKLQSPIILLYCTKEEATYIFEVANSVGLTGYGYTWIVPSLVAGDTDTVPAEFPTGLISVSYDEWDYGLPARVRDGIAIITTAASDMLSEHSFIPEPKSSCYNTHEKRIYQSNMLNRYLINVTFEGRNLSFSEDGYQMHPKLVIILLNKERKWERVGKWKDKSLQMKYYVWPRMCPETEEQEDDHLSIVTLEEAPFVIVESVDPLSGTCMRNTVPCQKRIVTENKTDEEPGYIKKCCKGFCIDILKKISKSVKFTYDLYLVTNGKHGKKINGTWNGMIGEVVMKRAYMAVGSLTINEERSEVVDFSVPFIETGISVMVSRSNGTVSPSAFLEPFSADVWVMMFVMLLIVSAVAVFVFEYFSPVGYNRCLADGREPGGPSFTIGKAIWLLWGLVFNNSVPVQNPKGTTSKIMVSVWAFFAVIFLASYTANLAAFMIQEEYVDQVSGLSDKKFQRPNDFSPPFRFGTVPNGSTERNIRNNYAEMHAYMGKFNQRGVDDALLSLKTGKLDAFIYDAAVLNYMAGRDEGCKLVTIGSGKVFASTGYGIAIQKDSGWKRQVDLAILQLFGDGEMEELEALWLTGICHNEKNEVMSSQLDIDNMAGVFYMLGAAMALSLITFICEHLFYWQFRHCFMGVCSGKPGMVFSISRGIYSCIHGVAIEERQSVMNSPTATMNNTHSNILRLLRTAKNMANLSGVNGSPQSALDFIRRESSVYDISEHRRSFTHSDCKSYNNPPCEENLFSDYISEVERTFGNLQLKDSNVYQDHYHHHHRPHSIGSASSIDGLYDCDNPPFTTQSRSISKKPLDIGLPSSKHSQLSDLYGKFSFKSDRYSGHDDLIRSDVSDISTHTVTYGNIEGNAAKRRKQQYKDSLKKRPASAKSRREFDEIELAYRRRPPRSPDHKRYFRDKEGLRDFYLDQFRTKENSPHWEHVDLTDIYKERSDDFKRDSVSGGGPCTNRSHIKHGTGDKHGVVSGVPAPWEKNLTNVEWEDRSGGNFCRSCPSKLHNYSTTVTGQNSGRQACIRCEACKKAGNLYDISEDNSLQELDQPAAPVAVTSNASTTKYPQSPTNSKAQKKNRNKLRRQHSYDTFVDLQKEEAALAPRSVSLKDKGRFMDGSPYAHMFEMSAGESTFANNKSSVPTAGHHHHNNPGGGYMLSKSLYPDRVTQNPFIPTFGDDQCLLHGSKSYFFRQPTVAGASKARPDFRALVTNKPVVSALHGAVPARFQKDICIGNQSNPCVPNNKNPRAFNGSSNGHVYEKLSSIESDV

[10] = molecular target: T1, Glutamate receptor ionotropic, NMDA 2C; experiment: Positive allosteric modulation of GluN2C receptor (unknown origin) expressed in xenopus laevis oocytes assessed as increase in glycine-induced channel current by two electrode voltage clamp method; type: cell-based
[11] = molecular target: T3, Glutamate receptor ionotropic, NMDA 2A; experiment: Positive allosteric modulation of EGFP-fused human GluN2A receptor expressed in HEK293T cells assessed as increase in glycine-induced channel current by two electrode voltage clamp method; type: cell-based
[12] = molecular target: T4, Glutamate receptor ionotropic, NMDA 2B; experiment: Positive allosteric modulation of EGFP-fused human GluN2B receptor expressed in HEK293T cells assessed as increase in glycine-induced channel current by two electrode voltage clamp method; type: cell-based
[13] = molecular target: T1, Glutamate receptor ionotropic, NMDA 2C; experiment: Positive allosteric modulation of EGFP-fused human GluN2C receptor expressed in HEK293T cells assessed as increase in glycine-induced channel current by two electrode voltage clamp method; type: cell-based
[14] = molecular target: T2, Glutamate receptor ionotropic, NMDA 2D; experiment: Positive allosteric modulation of EGFP-fused human GluN2D receptor expressed in HEK293T cells assessed as increase in glycine-induced channel current by two electrode voltage clamp method; type: cell-based
[15] = molecular target: T3, Glutamate receptor ionotropic, NMDA 2A; experiment: Negative allosteric modulation of GluN2A receptor (unknown origin) expressed in xenopus laevis oocytes assessed as reduction in glycine-induced channel current by two electrode voltage clamp method; type: cell-based
[16] = molecular target: T4, Glutamate receptor ionotropic, NMDA 2B; experiment: Negative allosteric modulation of GluN2B receptor (unknown origin) expressed in xenopus laevis oocytes assessed as reduction in glycine-induced channel current by two electrode voltage clamp method; type: cell-based
[17] = molecular target: Glutamate NMDA receptor; GRIN1/GRIN2A (Homo sapiens, UniProt Q05586+Q12879); experiment: Negative allosteric modulation of GluN1a/GluN2A receptor (unknown origin) expressed in xenopus laevis oocytes assessed as reduction in glutamate/glycine-induced channel current at -60 mV holding potential by two electrode voltage clamp method; type: cell-based
[18] = molecular target: Glutamate NMDA receptor; GRIN1/GRIN2B (Homo sapiens, UniProt Q05586+Q13224); experiment: Negative allosteric modulation of GluN1a/GluN2B receptor (unknown origin) expressed in xenopus laevis oocytes assessed as reduction in glutamate/glycine-induced channel current at -60 mV holding potential by two electrode voltage clamp method; type: cell-based
[19] = molecular target: Ionotropic glutamate receptor NMDA 1/2C (Homo sapiens, UniProt Q05586+Q14957); experiment: Negative allosteric modulation of GluN1a/GluN2C receptor (unknown origin) expressed in xenopus laevis oocytes assessed as reduction in glutamate/glycine-induced channel current at -60 mV holding potential by two electrode voltage clamp method; type: cell-based
Ionotropic glutamate receptor NMDA 1/2C, sequence (Q14957 whole entry, other chains not shown): as the sequence (Q14957 whole entry, one chain of several) above

[20] = molecular target: Ionotropic glutamate receptor NMDA 1/2D (Homo sapiens, UniProt O15399+Q05586); experiment: Negative allosteric modulation of GluN1a/GluN2D receptor (unknown origin) expressed in xenopus laevis oocytes assessed as reduction in glutamate/glycine-induced channel current at -60 mV holding potential by two electrode voltage clamp method; type: cell-based
Ionotropic glutamate receptor NMDA 1/2D, sequence (O15399 whole entry, other chains not shown): as the sequence (O15399 whole entry, one chain of several) above

[21] = molecular target: Glutamate receptor ionotropic, NMDA 2B (Rattus norvegicus, UniProt Q00960); experiment: Positive allosteric modulation of GluN2B receptor in rat spinal cord neurons assessed as increase in glycine-induced channel current by two electrode voltage clamp method
[22] = molecular target: Glutamate receptor ionotropic, NMDA 2B (Homo sapiens, UniProt Q13224); experiment: Positive allosteric modulation of GluN2B receptor (unknown origin) in hippocampal neurons assessed as increase in glycine-induced channel current by two electrode voltage clamp method
[23] = molecular target: T3, Glutamate receptor ionotropic, NMDA 2A; experiment: Negative allosteric modulation of human GluN2A receptor expressed in xenopus laevis oocytes assessed as reduction in 3 uM glycine-induced channel current at -40 mV holding potential by two electrode voltage clamp method; type: cell-based
[24] = molecular target: T1, Glutamate receptor ionotropic, NMDA 2C; experiment: Negative allosteric modulation of human GluN2C receptor expressed in xenopus laevis oocytes assessed as reduction in 3 uM glycine-induced channel current at -40 mV holding potential by two electrode voltage clamp method; type: cell-based
[25] = molecular target: T2, Glutamate receptor ionotropic, NMDA 2D; experiment: Negative allosteric modulation of human GluN2D receptor expressed in xenopus laevis oocytes assessed as reduction in 3 uM glycine-induced channel current at -40 mV holding potential by two electrode voltage clamp method; type: cell-based
[26] = molecular target: T2, Glutamate receptor ionotropic, NMDA 2D; experiment: Negative allosteric modulation of human GluN2D receptor expressed in HEK cells assessed as reduction in glycine/glutamate-induced intracellular calcium flux preincubated for 5 mins followed by glycine/glutamate addition by Fluo-4-AM dye based FLIPR assay; type: cell-based
[27] = molecular target: T3, Glutamate receptor ionotropic, NMDA 2A; experiment: Positive allosteric modulation of GluN2A receptor (unknown origin) expressed in HEK cell assessed as increase in glycine-induced calcium influx

pIC50 [1]: 5.59 | pIC50 [2]: 5.85 | Ratio IC50 (Homo sapiens [3]): > 400 | Ratio IC50 (Homo sapiens [4]): > 400 | Ratio IC50 (Homo sapiens [5]): > 400 | Ratio IC50 (Homo sapiens [6]): > 400
SMILES: CCN(CC)C(=S)Oc1ccc(C(=O)Nc2cccc3ccccc23)cc1

pEC50 [7]: 5.55 | pEC50 [8]: < 5.00 | pEC50 [9]: < 5.00 | pEC50 [10]: 5.57
SMILES: COc1ccc(OCC2c3cc(OC)c(OC)cc3CCN2C(=O)c2cccc(Cl)c2)cc1 (stereo unspecified)

pEC50 [8]: 5.07
SMILES: Cc1sc2nc(COc3ccc(F)cc3)cc(=O)n2c1[C@@H]1C[C@@H]1CO

SMILES: O=C(O)c1ccc2cc(I)c3ccccc3c2c1
pIC50 [1]: 4.30 | pIC50 [2]: 4.30 | pEC50 [8]: 4.00

SMILES: CC(=O)[C@H]1CC[C@H]2[C@@H]3CC=C4C[C@@H](OS(=O)(=O)O)CC[C@]4(C)[C@H]3CC[C@]12C
pIC50 [1]: 3.95 | pIC50 [2]: 3.93 | pEC50 [8]: 4.68 | pEC50 [9]: 4.48 | pEC50 [11]: 4.47 | pEC50 [12]: 4.20 | pEC50 [13]: 4.08 | pEC50 [14]: 4.11

pIC50 [15]: 4.28 | pIC50 [16]: 8.05
SMILES: C[C@@H](CN1CCC(Cc2ccccc2)CC1)[C@@H](O)c1ccc(O)cc1

pIC50 [16]: 3.95 | pIC50 [1]: 5.15
SMILES: Cc1ccc2[nH]c(=O)c(C3=NN(C(=O)CCC(=O)O)C(c4ccc(Br)cc4)C3)c(-c3ccccc3)c2c1 (stereo unspecified)

pIC50 [15]: 4.11 | pIC50 [16]: 4.72 | pIC50 [1]: 5.27 | pIC50 [2]: 5.57
SMILES: O=C(O)CCC(=O)N1N=C(c2c(-c3ccccc3)c3cc(Br)ccc3[nH]c2=O)CC1c1ccc(Br)cc1 (stereo unspecified)

pIC50 [15]: 4.73 | pIC50 [17]: 4.72 | pIC50 [18]: 4.05 | pIC50 [19]: 4.17 | pIC50 [20]: 3.37
SMILES: O=C(O)c1cc2cc(Br)ccc2oc1=O

pEC50 [9]: 3.90 | pEC50 [21]: 4.09 | pEC50 [22]: 3.90
SMILES: NCCCNCCCCNCCCN [SPERMINE]

pIC50 [15]: 5.01 | pIC50 [16]: 5.03 | pIC50 [1]: 4.82 | pEC50 [7]: 5.00
SMILES: O=C(O)c1cc2cccc(O)c2cc1O

pEC50 [7]: 4.54 | pEC50 [8]: 4.55 | pEC50 [9]: 4.47 | pEC50 [10]: 4.43
SMILES: CC(C)CCCc1ccc2cc(C(=O)O)ccc2c1

SMILES: CC(=O)[C@H]1CC[C@H]2[C@@H]3CC[C@@H]4C[C@H](OS(=O)(=O)O)CC[C@]4(C)[C@H]3CC[C@]12C
pIC50 [15]: 4.21 | pIC50 [16]: 4.42 | pIC50 [1]: 4.92 | pIC50 [2]: 4.85

pEC50 [7]: 5.17 | pEC50 [8]: 5.49 | pEC50 [9]: 4.80 | pEC50 [10]: 5.18
SMILES: CCCc1nc2[nH]c(C)c(NS(=O)(=O)c3ccc(C4CCCCC4)cc3)c(=O)n2n1

pIC50 [23]: 4.40 | pIC50 [24]: 4.54 | pIC50 [25]: 4.12
SMILES: CC(C(O)c1ccc(O)cc1)N1CCC(Cc2ccccc2)CC1 (stereo unspecified) [IFENPRODIL]

pIC50 [15]: 5.74 | pIC50 [16]: 5.62 | pIC50 [1]: 5.70 | pIC50 [2]: 5.62
SMILES: O=C(O)c1cc2cc(-c3ccccc3)ccc2c(Br)c1O

pIC50 [15]: 3.74 | pIC50 [16]: 3.71 | pIC50 [1]: 5.15 | pIC50 [2]: 5.41
SMILES: COc1ccc2nc(/C=C/c3cccc([N+](=O)[O-])c3)n(-c3ccc(C(=O)O)cc3)c(=O)c2c1

pIC50 [26]: < 4.52 | pIC50 [24]: < 5.00 | pIC50 [25]: < 5.00
SMILES: O=C(NNC(=O)c1ccc(CNS(=O)(=O)c2ccc(F)c(Cl)c2)cc1)c1ccccc1

pEC50 [27]: 5.61
SMILES: CCN(Cc1cc(=O)n2c3c(sc2n1)CCC3)c1ccc(F)cc1

pIC50 [16]: 7.92
SMILES: Cc1nccn1Cc1cc(-c2ccc(F)c(C(F)F)c2)cnn1 [EVT-101 FREE BASE]

pEC50 [10]: 4.89
SMILES: COC(=O)c1ccc(C2C(C(C)=O)=C(O)C(=O)N2CCc2c(C)[nH]c3ccccc23)cc1 (stereo unspecified)
